Assay results as given in patent US11753378B2, “Ketamine compounds and processes for making and using them” (Zevra Therapeutics, Inc., priority 2021, dated 2023).

Legend:
[1] = Pharmacokinetics of ketamine and norketamine in plasma after oral gavage; conditions: for norketamine exposure relative to ketamine exposure compared to unconjugated ketamine / release of ketamine compared to unconjugated ketamine: in words; for release of ketamine compared to unconjugated ketamine: administered orally
[2] = Pharmacokinetics of ketamine and norketamine in plasma after intranasal administration
[3] = system: NMDA receptor; conditions: cited from earlier work
[4] = analyte ketamine, oral, mean conjugate parameter/mean comparator parameter
[5] = analyte norketamine, oral, mean conjugate parameter/mean comparator parameter
[6] = oral gavage, ketamine % parameter/norketamine % parameter

CCOC(=O)CN(C)C(=O)c1ccc[n+](COC(=O)N(C)C2(c3ccccc3Cl)CCCCC2=O)c1.[Cl-] (racemic) [9b, KTM-CO2CH2-nicotinoyl-Sar(Et)]
% AUC0-4 hr, relative oral bioavailability of ketamine vs study comparator (Ketamine HCl) [1, 4]: 123%
% Cmax, relative oral bioavailability of ketamine vs study comparator (Ketamine HCl) [1, 4]: 124%
% AUC0-4 hr, relative oral bioavailability of norketamine vs study comparator (Ketamine HCl) [1, 5]: 62.7%
% Cmax, relative oral bioavailability of norketamine vs study comparator (Ketamine HCl) [1, 5]: 66.9%
% Exposure Ratio Ketamine:Norketamine, AUC0-4 hr [1, 6]: 1.96
% Exposure Ratio Ketamine:Norketamine, Cmax [1, 6]: 1.85
norketamine exposure relative to ketamine exposure compared to unconjugated ketamine ([1]; oral): reduced norketamine exposure relative to ketamine exposure
% AUC0-1 hr, relative intranasal bioavailability of ketamine vs study comparator (Ketamine HCl) ([2]; analyte ketamine, intranasal, mean conjugate parameter/mean comparator parameter): 68.1%
% Cmax, relative intranasal bioavailability of ketamine vs study comparator (Ketamine HCl) ([2]; analyte ketamine, intranasal, mean conjugate parameter/mean comparator parameter, 10k: time course stopped at 0.5 hours): 62.0%
% AUC0-1 hr, relative intranasal bioavailability of norketamine vs study comparator (Ketamine HCl) ([2]; analyte norketamine, intranasal, mean conjugate parameter/mean comparator parameter): 39.5%
% Cmax, relative intranasal bioavailability of norketamine vs study comparator (Ketamine HCl) ([2]; analyte norketamine, intranasal, mean conjugate parameter/mean comparator parameter, 10k: time course stopped at 0.5 hours): 37.1%
% Exposure Ratio PO:IN, Cmax ([2]; ketamine % parameter PO/ketamine % parameter IN): 2.00
% Exposure Ratio PO:IN, AUC ([2]; ketamine % parameter PO/ketamine % parameter IN, AUC0-4 h for PO and AUC0-1 h for IN): 1.80

CN[C@]1(c2ccccc2Cl)CCCCC1=O (single isomer, unassigned) [S(+) isomer, reference compound]
NMDA receptor antagonist potency relative to the R(−) isomer ([3]; background statement): approximately three to four times that of the R(−) isomer

CN(C(=O)OCOC(=O)c1ccncc1)C1(c2ccccc2Cl)CCCCC1=O.Cl (stereo not shown) [3b, Isonicotinate-CH2OCO-KTM HCl]
norketamine exposure relative to ketamine exposure compared to unconjugated ketamine ([1]; oral): reduced norketamine exposure relative to ketamine exposure

CC(C)[C@H](NC(=O)c1ccc[n+](COC(=O)N(C)C2(c3ccccc3Cl)CCCCC2=O)c1)C(=O)O (stereo partly shown) [10d, KTM-CO2CH2-nicotinoyl-Val]
norketamine exposure relative to ketamine exposure compared to unconjugated ketamine ([1]; oral): reduced norketamine exposure relative to ketamine exposure

CC[C@H](C)[C@H](NC(=O)c1ccc[n+](COC(=O)N(C)C2(c3ccccc3Cl)CCCCC2=O)c1)C(=O)O (stereo partly shown) [10e, KTM-CO2CH2-nicotinoyl-Ile]
norketamine exposure relative to ketamine exposure compared to unconjugated ketamine ([1]; oral): reduced norketamine exposure relative to ketamine exposure

CN(C(=O)OC[n+]1cccc(C(=O)N2CCC[C@H]2C(=O)O)c1)C1(c2ccccc2Cl)CCCCC1=O (stereo partly shown) [10f, KTM-CO2CH2-nicotinoyl-Pro]
norketamine exposure relative to ketamine exposure compared to unconjugated ketamine ([1]; oral): reduced norketamine exposure relative to ketamine exposure

CN(C(=O)OC[n+]1cccc(C(=O)N[C@@H](CCCCN)C(=O)O)c1)C1(c2ccccc2Cl)CCCCC1=O (stereo partly shown) [10g, KTM-CO2CH2-nicotinoyl-Lys]
release of ketamine compared to unconjugated ketamine [1]: extended or delayed release

CN(C(=O)OC[n+]1cccc(C(=O)N[C@@H](CCC(N)=O)C(=O)O)c1)C1(c2ccccc2Cl)CCCCC1=O (stereo partly shown) [10k, KTM-CO2CH2-nicotinoyl-Gln]
norketamine exposure relative to ketamine exposure compared to unconjugated ketamine ([1]; oral): reduced norketamine exposure relative to ketamine exposure

CSCC[C@H](NC(=O)c1ccc[n+](COC(=O)N(C)C2(c3ccccc3Cl)CCCCC2=O)c1)C(=O)O (stereo partly shown) [10s, KTM-CO2CH2-nicotinoyl-Met]
norketamine exposure relative to ketamine exposure compared to unconjugated ketamine ([1]; oral): reduced norketamine exposure relative to ketamine exposure

CN(CC(=O)O)C(=O)c1cc[n+](COC(=O)N(C)C2(c3ccccc3Cl)CCCCC2=O)cc1 (stereo not shown) [11b, KTM-CO2CH2-isonicotinoyl-Sar]
release of ketamine compared to unconjugated ketamine [1]: extended or delayed release
norketamine exposure relative to ketamine exposure compared to unconjugated ketamine ([1]; oral): reduced norketamine exposure relative to ketamine exposure

CC(C)[C@H](NC(=O)c1ccc[n+](COC(=O)N(C)[C@]2(c3ccccc3Cl)CCCCC2=O)c1)C(=O)O [S-10d, (S)-KTM-CO2CH2-nicotinoyl-Val]
norketamine exposure relative to ketamine exposure compared to unconjugated ketamine ([1]; oral): reduced norketamine exposure relative to ketamine exposure

NC1(c2ccccc2Cl)CCCCC1=O (stereo not shown) [norketamine]
NMDA receptor antagonist potency compared to ketamine ([3]; statement in words): less potent antagonist
